How the values were obtained:
Type in all cases: in vivo
[1] = tested on: sedge, umbrella (small-flower umbrella sedge, Cyperus difformis); assay: Test B flooded paddy test; details: Cyperus difformis, 250 g ai/ha, Flood; 0 to 100 scale where 0 is no effect and 100 is complete control; read-out: Sedge, Umbrella plant response rating
Method in brief: (§1)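 Percent control, visually estimated after 13–15 d in the greenhouse on a 0–100 basis, compares treated pots with untreated ones; compound was put into paddy water 3 cm above the soil when plants had two leaves.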

[2] = tested on: ducksalad (Heteranthera limosa); assay: Test B flooded paddy test; details: Heteranthera limosa, 250 g ai/ha, Flood; 0 to 100 scale where 0 is no effect and 100 is complete control; read-out: Ducksalad plant response rating
Method in brief: as §1

rice (Oryra sativa) = assay: Test B flooded paddy test; details: Oryza sativa, 250 g ai/ha, Flood; 0 to 100 scale where 0 is no effect and 100 is complete control; read-out: Rice plant response rating
Method in brief: as §1

[3] = tested on: barnyardgrass (Echinochloa crus-galli); assay: Test B flooded paddy test; details: Echinochloa crus-galli, 250 g ai/ha, Flood; 0 to 100 scale where 0 is no effect and 100 is complete control; read-out: Barnyardgrass plant response rating
Method in brief: as §1

[4] = tested on: giant foxtail (Setaria faberii); assay: Test A preemergence; details: Setaria faberi, pre-emergence, 240 h, 0 to 100 scale where 0 is no effect and 100 is complete control, read-out: Foxtail, Giant plant response rating
Method in brief: (§2)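 Ratings of 0 (no effect) to 100 (complete control) come from visual comparison with untreated controls roughly 10 d after treatment. Test chemicals, formulated in a non-phytotoxic solvent mixture with surfactant, were applied either as a preemergence directed soil spray on seeded soil or postemergence to one- to two-leaf plants 2 to 10 cm tall.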

[5] = tested on: ragweed (common ragweed, Ambrosia elatior); assay: Test A preemergence; details: Ambrosia artemisiifolia, pre-emergence, 240 h, 0 to 100 scale where 0 is no effect and 100 is complete control, read-out: Ragweed plant response rating
Method in brief: as §2

[6] = tested on: barnyardgrass (Echinochloa crus-galli); assay: Test A preemergence; details: Echinochloa crus-galli, pre-emergence, 240 h, 0 to 100 scale where 0 is no effect and 100 is complete control, read-out: Barnyardgrass plant response rating
Method in brief: as §2

[7] = tested on: ryegrass, Italian (Italian ryegrass, Lolium multiflorum); assay: Test A preemergence; details: Lolium multiflorum, pre-emergence, 240 h, 0 to 100 scale where 0 is no effect and 100 is complete control, read-out: Ryegrass, Italian plant response rating
Method in brief: as §2

Kochia (Kochia scoparia) [8] = assay: Test A preemergence; details: Bassia scoparia, pre-emergence, 240 h, 0 to 100 scale where 0 is no effect and 100 is complete control, read-out: Kochia plant response rating
Method in brief: as §2

[9] = tested on: pigweed (Amaranthus retroflexus); assay: Test A preemergence; details: Amaranthus retroflexus, pre-emergence, 240 h, 0 to 100 scale where 0 is no effect and 100 is complete control, read-out: Pigweed plant response rating
[10] = tested on: Galium (catchweed bedstraw, Galium aparine); assay: Test A postemergence; details: Galium, post-emergence, 240 h
Method in brief: as §2

[11] = tested on: giant foxtail (Setaria faberii); assay: Test A postemergence; details: Setaria faberi, post-emergence, 240 h
Method in brief: as §2

[12] = tested on: ragweed (common ragweed, Ambrosia elatior); assay: Test A postemergence; details: Ambrosia artemisiifolia, post-emergence, 240 h
Method in brief: as §2

corn (Zea mays) = assay: Test A postemergence; details: Zea mays, post-emergence, 240 h
Method in brief: as §2

[13] = tested on: barnyardgrass (Echinochloa crus-galli); assay: Test A postemergence; details: Echinochloa crus-galli, post-emergence, 240 h
Method in brief: as §2

[14] = tested on: ryegrass, Italian (Italian ryegrass, Lolium multiflorum); assay: Test A postemergence; details: Lolium multiflorum, post-emergence, 240 h
Method in brief: as §2

Kochia (Kochia scoparia) [15] = assay: Test A postemergence; details: Bassia scoparia, post-emergence, 240 h
Method in brief: as §2

[16] = tested on: blackgrass (Alopecurus myosuroides); assay: Test A postemergence; details: Alopecurus myosuroides, post-emergence, 240 h
Method in brief: as §2

[17] = tested on: wheat (Triticum aestivum); assay: Test A postemergence; details: Triticum aestivum, post-emergence, 240 h
Method in brief: as §2

[18] = tested on: pigweed (Amaranthus retroflexus); assay: Test A postemergence; details: Amaranthus retroflexus, post-emergence, 240 h
Method in brief: as §2

[19] = 125 g ai/ha, preemergence, approx. 10 d

C=C(C)c1ccc([C@H]2CN(C)C(=O)[C@@H]2C(=O)Nc2cccc(F)c2C)cc1 [Compound 1150]
pest or weed control at 250 g/ha [1]: 0% | pest or weed control at 250 g/ha [2]: 0% | pest or weed control at 250 g/ha (rice (Oryra sativa)): 0% | pest or weed control at 250 g/ha [3]: 0% | pest or weed control at 31 g/ha ([4]; 31 g ai/ha, Preemergence): 30% | pest or weed control at 125 g/ha [4, 19]: 90% | pest or weed control at 31 g/ha ([5]; 31 g ai/ha, Preemergence): 0% | pest or weed control at 125 g/ha [5, 19]: 0% | pest or weed control at 31 g/ha ([6]; 31 g ai/ha, Preemergence): 0% | pest or weed control at 125 g/ha [6, 19]: 70% | pest or weed control at 31 g/ha ([7]; 31 g ai/ha, Preemergence): 0% | pest or weed control at 125 g/ha [7, 19]: 0% | pest or weed control at 31 g/ha (Kochia (Kochia scoparia) [8]; 31 g ai/ha, Preemergence): 0% | pest or weed control at 125 g/ha (Kochia (Kochia scoparia) [8]; [19]): 0% | pest or weed control at 31 g/ha ([9]; 31 g ai/ha, Preemergence): 0% | pest or weed control at 125 g/ha [9, 19]: 0% | pest or weed control at 125 g/ha ([10]; 125 g ai/ha, postemergence, visual injury on 0 to 100 scale (0 no effect, 100 complete control), approx. 10 d, read-out: Galium plant response rating): 20% | pest or weed control at 31 g/ha ([10]; Postemergence, 31 g ai/ha, visual injury after approx. 10 d, 0 to 100 scale, 0 no effect, 100 complete control, read-out: Plant response rating, Galium): 0% | pest or weed control at 125 g/ha ([11]; 125 g ai/ha, postemergence, visual injury on 0 to 100 scale (0 no effect, 100 complete control), approx. 10 d, read-out: Foxtail, Giant plant response rating): 50% | pest or weed control at 31 g/ha ([11]; Postemergence, 31 g ai/ha, visual injury after approx. 10 d, 0 to 100 scale, 0 no effect, 100 complete control, read-out: Plant response rating, Foxtail, Giant): 0% | pest or weed control at 125 g/ha ([12]; 125 g ai/ha, postemergence, visual injury vs untreated controls after approx. 10 d, 0 = no effect, 100 = complete control, read-out: Ragweed plant response rating (0 to 100 scale)): 0% | pest or weed control at 31 g/ha ([12]; Postemergence, 31 g ai/ha, visual injury after approx. 10 d, 0 to 100 scale, 0 no effect, 100 complete control, read-out: Plant response rating, Ragweed): 0% | plant injury at 125 g/ha (corn (Zea mays); 125 g ai/ha, postemergence, visual injury on 0 to 100 scale (0 no effect, 100 complete control), approx. 10 d, read-out: Corn plant response rating): 20% | Corn plant response rating (crop injury, 0 = no effect, 100 = complete kill) at 31 g/ha (corn (Zea mays); Postemergence, 31 g ai/ha, visual injury after approx. 10 d, 0 to 100 scale, 0 no effect, 100 complete control): 0% | pest or weed control at 125 g/ha ([13]; 125 g ai/ha, postemergence, visual injury on 0 to 100 scale (0 no effect, 100 complete control), approx. 10 d, read-out: Barnyardgrass plant response rating): 40% | pest or weed control at 31 g/ha ([13]; Postemergence, 31 g ai/ha, visual injury after approx. 10 d, 0 to 100 scale, 0 no effect, 100 complete control, read-out: Plant response rating, Barnyardgrass): 0% | pest or weed control at 125 g/ha ([14]; 125 g ai/ha, postemergence, visual injury vs untreated controls after approx. 10 d, 0 = no effect, 100 = complete control, read-out: Ryegrass, Italian plant response rating (0 to 100 scale)): 0% | pest or weed control at 31 g/ha ([14]; Postemergence, 31 g ai/ha, visual injury after approx. 10 d, 0 to 100 scale, 0 no effect, 100 complete control, read-out: Plant response rating, Ryegrass, Italian): 0% | pest or weed control at 125 g/ha (Kochia (Kochia scoparia) [15]; 125 g ai/ha, postemergence, visual injury on 0 to 100 scale (0 no effect, 100 complete control), approx. 10 d, read-out: Kochia plant response rating): 20% | pest or weed control at 31 g/ha (Kochia (Kochia scoparia) [15]; Postemergence, 31 g ai/ha, visual injury after approx. 10 d, 0 to 100 scale, 0 no effect, 100 complete control, read-out: Plant response rating, Kochia): 0% | pest or weed control at 125 g/ha ([16]; 125 g ai/ha, postemergence, visual injury on 0 to 100 scale (0 no effect, 100 complete control), approx. 10 d, read-out: Blackgrass plant response rating): 0% | pest or weed control at 31 g/ha ([16]; Postemergence, 31 g ai/ha, visual injury after approx. 10 d, 0 to 100 scale, 0 no effect, 100 complete control, read-out: Plant response rating, Blackgrass): 0% | plant injury at 125 g/ha ([17]; 125 g ai/ha, postemergence, visual injury vs untreated controls after approx. 10 d, 0 = no effect, 100 = complete control, read-out: Wheat plant response rating (0 to 100 scale)): 0% | plant injury at 31 g/ha ([17]; Postemergence, 31 g ai/ha, visual injury after approx. 10 d, 0 to 100 scale, 0 no effect, 100 complete control, read-out: Plant response rating, Wheat): 0% | pest or weed control at 125 g/ha ([18]; 125 g ai/ha, postemergence, visual injury vs untreated controls after approx. 10 d, 0 = no effect, 100 = complete control, read-out: Pigweed plant response rating (0 to 100 scale)): 0% | pest or weed control at 31 g/ha ([18]; Postemergence, 31 g ai/ha, visual injury after approx. 10 d, 0 to 100 scale, 0 no effect, 100 complete control, read-out: Plant response rating, Pigweed): 0%

— US12077503B2, “Substituted cyclic amides and their use as herbicides” (FMC CORPORATION, priority 2015, dated 2024)
